Source: US20250129012A1, “ANTI-INFLAMMATORY AND ANALGESIC COMPOUNDS AND USE THEREOF” (JIANGSU ATOM BIOSCIENCE AND PHARMACEUTICAL CO., LTD., priority 2021, published 2025)
Read-outs that look alike come from different tables or passages of the source. Marks after values point to notes of the source that are not given here.

What was measured:
[1] = test system: gouty arthritis rats (sodium urate, right ankle and knee joint cavities); assay: Pharmacodynamics experiment B on gouty arthritis rats: gait score; assay type: in vivo, SD rats; details: for Gait Score: dose 0.6 mg/kg gavage, mean; for Gait versus model group, in words: compounds 0.6 mg/kg, colchicine 0.6 and 1.2 mg/kg
Method: (§1) Compounds 12, 16, 19, 30, 34, 36, 38, 40, 44, 48, 49, 52, 58, 69, 83, 98, 102, 119, 121, and 122 were prepared by grinding with 0.5% CMC-Na prior to administration and formulated into suspensions of appropriate concentration (0.12 mg/mL) for gavage, with an administered dose of 0.5 mL/100 g.
(§2) 240 SD rats, males, were acclimatized for one week and weighed 180-220 g. […] The dose of each compound group was 0.6 mg/kg. The compounds in each group were prepared into the corresponding concentration suspension, and the volume of administration was 10 mL/kg.
(§3) 250 mg of sodium urate were added to 9 mL of saline, and 1 mL of Tween-80 solution was added, the resulting mixture was heated and stirred to formulate 10 mL of sodium urate solution. The rats were grasped and fixed, and 0.2 mL of sodium urate solution was injected into the right ankle and knee joint cavities respectively to establish gouty arthritis rat model.
(§4) Before modeling, positive drug and tested compounds were pre-administered for 7 days, once a day, and modeling was performed on day 8, and drug administration by gavage continued for 3 days after modeling.
Gait was scored according to the modified gait grading criteria introduced by Coderre et al. The gait of each rat was observed before and 2 h, 4 h, 8 h, 10 h, 24 h and 48 h after modeling and graded scoring was performed. The gait grading criteria were as follows: 0 point, normal walking; 1 point, slight lameness, the lower limbs were slightly bent; 2 points: moderate lameness, the lower limbs just touched the ground; 3 points, severe lameness, the lower limbs left the ground, and walked on three feet. The mean score of each group was calculated and compared with that of the model group.
(§5) Each experimental data was expressed as the mean, and intergroup comparisons were examined for significance using the ANOVA-Dunnett T-test, with P<0.05 as the significance indicator.

[2] = test system: gouty arthritis rats (sodium urate, right ankle and knee joint cavities); assay: Pharmacodynamics experiment B on gouty arthritis rats: ankle swelling rate; assay type: in vivo, SD rats; details: Rattus norvegicus, po, read-out: Swelling rate (ankle)
Method: as §1, §2, §3, §4
Before modeling and 2 h, 4 h, 8 h, 10 h, 24 h and 48 h after modeling, the circumference of the right ankle joint was measured using a soft ruler or the volume change at the ankle was measured (volumetric method), and the swelling degree and swelling rate of ankle joint were calculated:
Swelling degree (mm)=measured circumference (mm)−baseline circumference (mm)
Swelling rate (%)=swelling degree (mm)/baseline circumference (mm)×100%
as §5

[3] = In vivo pharmacokinetics in SD rats; details: Sprague-Dawley, rat, in vivo
Method: Compound stock solution preparation: an appropriate amount of solid powder of the compounds were weighed separately, a certain amount of DMSO was added and 20 mg/mL of stock solution was obtained under vortex ultrasound.
Preparation of test compound for gavage: an appropriate amount of compound stock solution was taken by pipette, a certain amount of Solutol HS15 solution was added, the mixture was vortexed for 1 minute, then a certain amount of saline was added, and 1 mg/mL of solution was obtained after mixing well.
Preparation of test compounds for intravenous injection: an appropriate amount of compound stock solution was taken by pipette separately, a certain amount of Solutol HS15 solution was added, the mixture was vortexed for 1 minute, then a certain amount of physiological saline was added and a solution of 0.5 mg/mL was obtained after mixing well.
The animals were fasted overnight before administration by gavage, and food was given 4 hours after administration, during which they were free to drink. Two groups were set for each test compound, intravenous injection group and oral administration group, and the dose and mode of administration were shown in Table 12 below.
The blood samples were centrifuged at 4° C. for 5 min at 2,000 g to separate the plasma. The plasma samples were analyzed by LC/MS/MS to detect the concentration of each test compound in the plasma samples.
The parameters related to the […] were obtained by calculations with WinNonlin® Professional software.

SMILES	Gait Score ([1]; 2 h)	Gait Score ([1]; 4 h)	Gait Score ([1]; 8 h)	Gait Score ([1]; 10 h)	Gait Score ([1]; 24 h)	Gait Score ([1]; 48 h)	Gait versus model group, in words [1]	change in vivo at 0.6 mg/kg ([2]; 2 h) [%]	change in vivo at 0.6 mg/kg ([2]; 4 h) [%]	change in vivo at 0.6 mg/kg ([2]; 8 h) [%]	change in vivo at 0.6 mg/kg ([2]; 10 h) [%]	change in vivo at 0.6 mg/kg ([2]; 24 h) [%]	change in vivo at 0.6 mg/kg ([2]; 48 h) [%]	further results
COc1cc2c(c(OC)c1OC)-c1cc(C)c(O[C@H]3CCOC3)c(=O)cc1[C@@H](NC(C)=O)CC2 [Compound 30, N—{(S)-1,2,3-trimethoxy-11-methyl-9-oxo-10-{[(S)-tetrahydrofuran-3-yl]oxy}-5,6,7,9-tetrahydrobenzo[a]heptalen-7-yl}acetamide]	0	0	0*	0*	0.3	0	significant improvement in gait occurred at different time points	-4.04	1.2	0.57	6.69	9.77	-1.34	–
CNC(=O)c1ccc2c(cc1=O)[C@@H](NC(=O)C1CC1)CCc1cc(OC)c(OC)c(OC)c1-2 [Compound 102, (S)-7-(3-cyclopropylcarbonylamino)-1,2,3-trimethoxy-N-methyl-9-oxo-5,6,7,9-tetrahydrobenzo[a]heptalen-10-carboxamide]	0	0	0.27	0.09*	0	0	–	14.1	13.6	14.4	19.3	16.7	9.4	–
[2H]C([2H])([2H])Oc1cc2c(c(OC)c1OC([2H])([2H])[2H])-c1ccc(C(=O)NC)c(=O)cc1[C@@H](NC(C)=O)CC2 [Compound 124, (S)-7-acetamido-1-methoxy-2,3-bis(trideuteromethoxy)-N-methyl-9-oxo-5,6,7,9-tetrahydrobenzo[a] heptalen-10-carboxamide]	–	–	–	–	–	–	–	–	–	–	–	–	–	F ([3]; 10 mg/kg): 44.7%; AUC(0-inf) ([3]; iv, 1 mg/kg): 756 ng·h/mL; MRT inf ([3]; iv, 1 mg/kg): 0.652 h; Vd ([3]; iv, 1 mg/kg): 0.864 L/kg; clearance ([3]; iv, 1 mg/kg): 22.3 mL/min/kg; half-life ([3]; iv, 1 mg/kg): 0.644 h; AUC(0-inf) ([3]; po, 10 mg/kg): 3380 ng·h/mL; Cmax ([3]; po, 10 mg/kg): 2260 ng/mL; MRT inf ([3]; po, 10 mg/kg): 1.71 h; Tmax ([3]; po, 10 mg/kg): 0.333 h; half-life ([3]; po, 10 mg/kg): 1.38 h
COc1cc2c(c(OC)c1OC)-c1ccc(C(=O)N3CCOCC3)c(=O)cc1[C@@H](NC(C)=O)CC2 [Compound 83, (S)—N-{1,2,3-trimethoxy-10-(morpholine-4-carbonyl)-9-oxo-5,6,7,9-tetrahydrobenzo[a]heptalen-7-yl}acetamide]	0	0	0*	0*	0	0	significant improvement in gait occurred at different time points	8.31	10.4	16.6	21.1	26.3	15.3	–
COC(=O)c1cc2c(cc(=O)c1OC)[C@@H](NC(C)=O)CCc1cc(OC)c(OC)c(OC)c1-2 [Compound 40, methyl (S)-7-acetamido-1,2,3,10-tetramethoxy-9-oxo-5,6,7,9-tetrahydrobenzo[a]heptalen-11-carboxylate]	0	0	0*	0*	0.4	0	significant improvement in gait occurred at different time points	5.81	7.96	11.2	9.9	21.7	9.33	–
COc1cc2c(c(OC)c1OC)-c1cc(C)c(OC)c(=O)cc1[C@@H](NC(C)=O)CC2 [Compound 16, (S)—N-(1,2,3,10-tetramethoxy-11-methyl-9-oxo-5,6,7,9-tetrahydrobenzo[a]heptalen-7-yl)acetamide]	0	0.1	0*	0*	0	0	significant improvement in gait occurred at different time points	9.71	13	17.8	17.4	18.6	6.17	–
COc1cc2c(c(OC)c1OC)-c1cc(I)c(OC)c(=O)cc1[C@@H](NC(C)=O)CC2 [Compound 12, (S)—N-(11-iodo-1,2,3,10-tetramethoxy-9-oxo-5,6,7,9-tetrahydrobenzo[a]heptalen-7-yl)acetamide]	0	0	0*	0*	0	0	significant improvement in gait occurred at different time points	10.8	16.5	18.7	31.4	22.8	15	–
[2H]C([2H])([2H])Oc1c(OC)c(OC)cc2c1-c1ccc(C(=O)NC)c(=O)cc1[C@@H](NC(C)=O)CC2 [Compound 132, (S)-7-acetamido-2,3-dimethoxy-1-trideuteromethoxy-N-methyl-9-oxo-5,6,7,9-tetrahydrobenzo[a]heptalen-10-carboxamide]	–	–	–	–	–	–	–	–	–	–	–	–	–	F ([3]; 10 mg/kg): 47.5%; AUC(0-inf) ([3]; iv, 1 mg/kg): 702 ng·h/mL; MRT inf ([3]; iv, 1 mg/kg): 1.06 h; Vd ([3]; iv, 1 mg/kg): 1.39 L/kg; clearance ([3]; iv, 1 mg/kg): 24.3 mL/min/kg; half-life ([3]; iv, 1 mg/kg): 2.12 h; AUC(0-inf) ([3]; po, 10 mg/kg): 3340 ng·h/mL; Cmax ([3]; po, 10 mg/kg): 1780 ng/mL; MRT inf ([3]; po, 10 mg/kg): 2.1 h; Tmax ([3]; po, 10 mg/kg): 0.25 h; half-life ([3]; po, 10 mg/kg): 1.39 h
COc1cc2c(c(OC)c1OC)-c1ccc(N3CCCC3=O)c(=O)cc1[C@@H](NC(C)=O)CC2 [Compound 52, (S)—N-[1,2,3-trimethoxy-9-oxo-10-(2-oxo-pyrrolidin-1-yl)-5,6,7,9-tetrahydrobenzo[a]heptalen-7-yl]acetamide]	0	0	0*	0*	0	0	significant improvement in gait occurred at different time points	11	9.83	11.8	30.2	22	7.88	–
COc1cc2c(c(OC)c1OC)-c1ccc(OCC(F)(F)F)c(=O)cc1[C@@H](NC(C)=O)CC2 [Compound 36, (S)—N-{1,2,3-trimethoxy-9-oxo-10-(2,2,2-trifluoroethoxy)-5,6,7,9-tetrahydrobenzo[a]heptalen-7-yl}acetamide]	0	0	0*	0*	0.2	0.1	significant improvement in gait occurred at different time points	-3.59	2.37	2.62	10.4	10	-2.54	–
